Experimental data published in EP0631503B1, “USE OF VASOACTIVE INTESTINAL PEPTIDE (VIP) TO INDUCE TEMPORARY PARALYSIS OF THE GASTROINTESTINAL TRACT” (KORMAN, Louis Y., priority 1991, dated 2001).
Like-named read-outs stand apart in the source and are kept apart here.

Assays:
[1] = Experimental: During the period of observation, vital signs (blood pressure and pulse) and symptoms were continuously recorded. The protocol was such that if the blood pressure dropped by more than 20 mm Hg systolic or diastolic or the pulse increased by more than 30 beats per minute for 2 minutes, intravenous saline was to be administered and the study terminated.
[2] = test system: antroduodenal activity; conditions: 1 mg i.v. followed by 2 mg IV over 2 hours; cited from earlier work
[3] = dose dependent side effects; cited from earlier work
[4] = in vivo; cited from earlier work
[5] = test system: contractions in the antrum; conditions: doses as high as 2 mg; cited from earlier work
[6] = test system: gastroduodenal motility; conditions: reduction in gastroduodenal motility, dose-dependent; cited from earlier work
[7] = test system: opossum duodenum; conditions: cited from earlier work
[8] = first patient, initial dose of 5 ng VIP per kg

Row | Compound | effects on blood pressure and pulse ([1]; first patient, higher dose level (20 ng/kg)) | pulse [1, 8] | systolic pressure [1, 8] | blood pressure ([1]; second patient, 5 and 20 ng/kg of bodyweight) | blood pressure or pulse ([1]; second patient, any of the dosages tested) | blood pressure or pulse ([1]; third patient, any dose of VIP administered) | adverse reactions such as nausea or vomiting ([1]; three patients studied) | cycle length and time between contractile activity in the duodenum [2] | mean pressure period [2] | dose at which nausea and vomiting can appear [3] | colonoscopic evaluation [4] | contractions in the antrum [5] | minimally effective dose [6] | effect on duodenum [7]
1 | CC[C@H](C)[C@H](NC(=O)[C@H](CO)NC(=O)[C@H](CC(N)=O)NC(=O)[C@H](CC(C)C)NC(=O)[C@H](Cc1ccc(O)cc1)NC(=O)[C@H](CCCCN)NC(=O)[C@H](CCCCN)NC(=O)[C@@H](NC(=O)[C@H](C)NC(=O)[C@H](CCSC)NC(=O)[C@H](CCC(N)=O)NC(=O)[C@H](CCCCN)NC(=O)[C@H](CCCN=C(N)N)NC(=O)[C@H](CC(C)C)NC(=O)[C@H](CCCN=C(N)N)NC(=O)[C@@H](NC(=O)[C@H](Cc1ccc(O)cc1)NC(=O)[C@H](CC(N)=O)NC(=O)[C@H](CC(=O)O)NC(=O)[C@@H](NC(=O)[C@H](Cc1ccccc1)NC(=O)[C@@H](NC(=O)[C@H](C)NC(=O)[C@H](CC(=O)O)NC(=O)[C@H](CO)NC(=O)[C@@H](N)Cc1c[nH]cn1)C(C)C)[C@@H](C)O)[C@@H](C)O)C(C)C)C(=O)N[C@@H](CC(C)C)C(=O)N[C@@H](CC(N)=O)C(N)=O [VIP, vasoactive intestinal peptide] | not seen | increase | slight decrease | no significant effect | no significant change | no significant change | None of the three patients studied experienced any adverse reactions | – | – | – | – | – | – | –
2 | glucagon | – | – | – | – | – | – | – | significantly increased | decreased | 1 mg | does not facilitate | does not reduce contractions | 0.5 mg | stimulated relaxation
